According to US8362256B2, “Salts of N-[4-(1-cyanocyclopentyl)phenyl]-2-(4-pyridylmethyl)amino-3-pyridinecarboxamide” (Jiangsu Hengrui Medicine Co. Ltd., priority 2008, dated 2013):
“And” between values parts separate entries of the source, which are not always exact repeats. Equal entries are not always repeated. Where two headings read alike, the source gives them in different places.

Key:
[1] = Stability in different conditions, content by HPLC; type: physicochemical; conditions: for content after 6 Months Under Light / content after 6 Months at 60° C. / content after 6 Months at Room Temperature: HPLC, initial purity 99.6%
Solubility = type: physicochemical
in vivo = conditions: rat, po, 1 mmol/kg
Text: Male Sprague-Dawley (SD) rats (weight: about 250 g, experimental animal certification of fitness: 0006473) were purchased from Shanghai Slaccas experimental animals limited liability company (certification number: SCXK (Hu) 2003-0003). The relevant qualifications and state of health of the SD rats were checked first, and the eligible ones were placed into the clean grade chambers of rats in Shanghai institute of Materia Medica.
(§1) I. Analysis Condition of LC/MS/MS
(§2) Analysis Condition of Liquid Chromatography
Chromatographic column: Agilent Zorbax SB-C18 column (50 mm×2.1 mm ID);
(§3) Column temperature: 25° C.;
Mobile phase: A: H2O—CH3CN (2:98, v/v), B: H2O—CH3CN (10:90, v/v)
(§4) A: 25%+B: 75%, constant gradient elution;
(§5) Analysis time: 3 minutes.
The light circle was switched to 12/12 hour day/night in the clean grade chambers of rats. Humidity and temperature were 40-60% and 20-24° C., respectively. Every 4 rats were raised in a 36×24×19 cm^3 stainless rat cage. The rats took water freely and were fed special rat food regularly once daily. Only after one week adaption, the rats were used to conduct pharmacokinetics studies. 12 Sprague-Dawley rats were divided into 4 groups, 3 for each group.
The blood samples were collected 0 hour before the administration and 0.083, 0.25, 0.5, 1.0, 2, 4, 6, and 8 hours after the administration. The blood samples were collected at 250˜300 μL at each time point from posterior venous sinus of the eye after respiration anaesthesia with ether (the degree of anaesthesia was highly controlled). The blood was collected into test tubes containing heparin, and then was centrifuged to produce plasma. The obtained plasma was divided into 2 parts (50 μL for each part) and stored at −70° C. until analysis. […] After experiments, euthanasia was performed with CO2 gas.
Pharmacokinetics parameters of animal experiment of each group were calculated using InnaPhase Kinetica™ software (America).

[2] = tested on: kinases Ret, VEGFR-1, PDGFR-β, c-kit, cSRC; conditions: cited from earlier work
colon cancer Ls174t = conditions: cited from earlier work
VEGFR-2 = VEGFR-2 (Homo sapiens, UniProt P35968); conditions: enzyme level tests in different laboratories; cited from earlier work
[3] = tested on: non-small cell lung cancer A549; conditions: cited from earlier work
[4] = Bioavailability of compound A by oral administration (Example 4); type: in vivo, Sprague-Dawley (SD) rats; conditions: SD rats
Procedure: as §1, §2, §3, §4, §5
Only after one week adaption, the rats could be used to conduct pharmacokinetics animal experiment.
The blood samples were collected into test tubes containing heparin added in advance, and then centrifuged to produce plasma. […] Euthanasia was performed on used rats with CO2 gas.

c-Src = c-Src (Homo sapiens, UniProt P12931); test: ELISA tyrosine kinase inhibition; type: biochemical; conditions: concentration increased to 10^4 nM
Procedure: Phosphorylation of substrate was determined with monoclonal antibody of anti-phosphorylation tyrosine (PY99). Goat anti-mouse IgG marked with HRP was then added, and the degree of phosphorylation of substrate was determined with OPD coloration. At the same time, the control group without tyrosine kinase and control wells of corresponding DMSO concentration were set up. 2 M of H2SO4 was added in 50 μl/well to terminate the reaction. Data was read with adjustable wavelength micro plate enzyme-labeling instrument VERSAmax (Sunnyvale, Calif., U.S.A.), followed by visualization reaction, OD490 nm value was then observed.
Relative inhibition rate of drugs on tyrosine kinase protein was determined.

[5] = 75 mg/kg; initial tumor volume 25-100 mm3; 28 days or more; cited from earlier work
[6] = tested on: human colon cancer Ls174t; test: Efficacy on human colon cancer Ls174t transplanted in nude mice; conditions: for Weight after Removing Tumor, d0 / TV x ± SD, d0: d0 baseline; for RTV x ± SD / T/C / TV x ± SD, dn: dn 14 days; for Weight after Removing Tumor, dn: dn 14 days after first administration
Procedure: BALB/cA-nude mice, ♀, 5-6 weeks-old, available from Shanghai Slaccas experimental animals limited liability company. […] Rearing environment: SPF grade.
After one week adaption, the experimental animals were subcutaneously inoculated with human colon cancer Ls174t tumor tissues. When the tumors grew to 100-300 mm^3, the animals were randomly divided into several groups in day 0 (d0). […] The volumes of tumors and the weights of mice were measured 2-3 times every week, the data of which were recorded. The equation for the calculation of volume of tumors (V) is: V=½×a×b^2 wherein a and b represent length and width, respectively.

human colon cancer HT-29 = test: Efficacy on human colon cancer HT-29 transplanted in nude mice
Procedure: BALB/cA-nude mice, ♀, 5-6 weeks-old, purchased from Shanghai Slaccas experimental animals limited liability company. […] Rearing environment: SPF grade.
After one week adaption, the experimental animals were subcutaneously inoculated with human colon cancer HT-29 tumor tissues. When the tumors grew to 100-300 mm^3, the animals were randomly divided into several groups. […] Volume of tumors and weight of mice were measured 2-3 times every week, the data of which were recorded. The equation for the calculation of volume of tumors (V) is: V=½×a×b^2 wherein a, b represent length and width, respectively.

[7] = oral 20 mg/kg, individual rats, 20 mg/kg
[8] = 50 mg/kg p.o. once daily d0-d13
[9] = 100 mg/kg p.o. once daily d0-d13
[10] = 200 mg/kg p.o. once daily d0-d13
[11] = 200 mg/kg p.o. once daily d0-d20, dn 21 days

Sequence of c-Src (P12931 whole entry, species assumed): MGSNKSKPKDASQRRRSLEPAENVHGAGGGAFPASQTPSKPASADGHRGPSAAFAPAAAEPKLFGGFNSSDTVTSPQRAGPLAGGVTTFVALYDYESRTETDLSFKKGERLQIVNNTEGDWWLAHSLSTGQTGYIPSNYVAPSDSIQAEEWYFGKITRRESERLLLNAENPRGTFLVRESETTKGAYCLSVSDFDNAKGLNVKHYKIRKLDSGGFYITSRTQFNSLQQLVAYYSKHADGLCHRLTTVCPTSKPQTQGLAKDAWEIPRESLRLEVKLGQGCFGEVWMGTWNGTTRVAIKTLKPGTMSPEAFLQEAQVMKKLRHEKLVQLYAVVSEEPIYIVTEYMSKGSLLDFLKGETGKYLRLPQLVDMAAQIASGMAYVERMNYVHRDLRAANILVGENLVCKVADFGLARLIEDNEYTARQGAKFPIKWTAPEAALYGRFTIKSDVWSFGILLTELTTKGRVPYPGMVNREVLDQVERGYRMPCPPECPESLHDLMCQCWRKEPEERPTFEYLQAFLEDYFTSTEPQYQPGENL
Sequence of VEGFR-2 (P35968 20-1356, species assumed): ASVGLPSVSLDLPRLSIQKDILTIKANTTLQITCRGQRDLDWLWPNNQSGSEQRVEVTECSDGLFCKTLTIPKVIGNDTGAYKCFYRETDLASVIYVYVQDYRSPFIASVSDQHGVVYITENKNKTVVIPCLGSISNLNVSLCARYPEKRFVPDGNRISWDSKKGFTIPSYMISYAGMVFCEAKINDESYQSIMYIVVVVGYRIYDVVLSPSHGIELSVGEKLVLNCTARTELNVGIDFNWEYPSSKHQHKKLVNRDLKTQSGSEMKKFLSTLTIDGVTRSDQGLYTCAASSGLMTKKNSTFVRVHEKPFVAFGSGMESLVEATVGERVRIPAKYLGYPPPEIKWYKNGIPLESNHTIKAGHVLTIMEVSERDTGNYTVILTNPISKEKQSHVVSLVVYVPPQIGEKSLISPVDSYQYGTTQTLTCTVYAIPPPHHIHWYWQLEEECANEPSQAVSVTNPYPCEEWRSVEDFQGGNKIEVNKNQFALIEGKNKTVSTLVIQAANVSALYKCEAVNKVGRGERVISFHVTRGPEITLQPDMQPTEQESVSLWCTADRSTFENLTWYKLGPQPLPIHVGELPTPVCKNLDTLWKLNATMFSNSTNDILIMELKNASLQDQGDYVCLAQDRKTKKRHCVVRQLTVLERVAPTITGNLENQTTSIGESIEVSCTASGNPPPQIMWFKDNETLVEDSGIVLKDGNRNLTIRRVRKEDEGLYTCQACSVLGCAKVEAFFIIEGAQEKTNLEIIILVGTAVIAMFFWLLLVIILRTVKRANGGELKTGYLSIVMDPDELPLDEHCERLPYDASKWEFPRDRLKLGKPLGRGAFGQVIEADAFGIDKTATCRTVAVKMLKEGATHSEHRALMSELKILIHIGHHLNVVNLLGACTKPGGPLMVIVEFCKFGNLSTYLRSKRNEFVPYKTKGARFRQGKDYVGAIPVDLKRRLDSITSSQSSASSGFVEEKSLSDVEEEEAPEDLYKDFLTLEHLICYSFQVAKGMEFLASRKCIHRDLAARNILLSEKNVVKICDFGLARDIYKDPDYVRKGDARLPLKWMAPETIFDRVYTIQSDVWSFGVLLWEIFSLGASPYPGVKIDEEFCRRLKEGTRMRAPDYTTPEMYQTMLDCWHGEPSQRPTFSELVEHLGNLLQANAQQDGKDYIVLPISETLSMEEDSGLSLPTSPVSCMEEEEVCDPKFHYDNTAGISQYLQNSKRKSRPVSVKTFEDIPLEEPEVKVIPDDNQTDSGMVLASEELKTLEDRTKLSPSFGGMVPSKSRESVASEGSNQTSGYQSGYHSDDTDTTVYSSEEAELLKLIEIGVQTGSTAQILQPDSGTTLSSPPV

N#CC1(c2ccc(NC(=O)c3cccnc3NCc3ccncc3)cc2)CCCC1.O=C(O)/C=C\C(=O)O [Maleate of compound A]
content after 6 Months Under Light [1]: 94.2%
content after 6 Months at 60° C. [1]: 93.5%
content after 6 Months at Room Temperature [1]: 96.4%
Solubility in water (Solubility): Insoluble
AUC0→8 h Mol dose (in vivo): 11697 ± 8807 ng·h/mL

N#CC1(c2ccc(NC(=O)c3cccnc3NCc3ccncc3)cc2)CCCC1 [Compound A, N-[4-(1-cyanocyclopentyl)phenyl]-2-(4-pyridylmethyl)amino-3-pyridine carboxamide]
content after 6 Months Under Light [1]: 95.2%
content after 6 Months at 60° C. [1]: 92.2%
content after 6 Months at Room Temperature [1]: 95.7%
inhibition activity on kinases Ret, VEGFR-1, PDGFR-β, c-kit, cSRC [2]: certain selective inhibition activity
efficacy in combination with oxaliplatin (colon cancer Ls174t; combination with oxaliplatin): improved
toxicity in combination with oxaliplatin (colon cancer Ls174t; mouse, in vivo): not increased
efficacy on colon cancer Ls174t transplanted in nude mice (colon cancer Ls174t; used alone, compared with PTK787): distinctly better than PTK787
Solubility in water (Solubility): Insoluble
IC50 (VEGFR-2): ~1 nM
efficacy on non-small cell lung cancer A549 transplanted in nude mice ([3]; compared with PTK787): distinctly better than PTK787
maximum efficacy on A549 ([3]; compared with ZD6474 at a customary dose): equivalent to ZD6474
CL, Mean ± SD ([4]; oral 20 mg/kg, 3 rats): 1520 ± 393 mL/min/kg
Kel, Mean ± SD ([4]; oral 20 mg/kg, 3 rats): 0.426 ± 0.169 h⁻¹
Vd, Mean ± SD ([4]; oral 20 mg/kg, 3 rats): 300 ± 69.4 L/kg
AUC0→8h [4, 7]: 295 ng·h/mL and 211 ng·h/mL
CL [4, 7]: 1920 mL/min/kg and 1120 mL/min/kg and 1540 mL/min/kg
Cmax [4, 7]: 68.9 ng/mL and 79.2 ng/mL
Kel [4, 7]: 0.325 h⁻¹ and 0.622 h⁻¹ and 0.332 h⁻¹
MRT [4, 7]: 3.38 h and 3.32 h
T1/2 [4, 7]: 1.12 h and 2.09 h
Tmax [4, 7]: 1 h
Vd [4, 7]: 366 L/kg and 228 L/kg and 308 L/kg
AUC(0-t) ([4]; male, Sprague-Dawley, rat, plasma, po, 20 mg/kg, 3 rats, read-out: AUC0→8h, Mean ± SD): 226 ± 63 ng·h/mL
Cmax ([4]; male, Sprague-Dawley, rat, plasma, po, 20 mg/kg, 3 rats, read-out: Cmax, Mean ± SD): 69.6 ± 9.2 ng/mL
MRT ([4]; male, Sprague-Dawley, rat, plasma, po, 20 mg/kg, 3 rats, read-out: MRT, Mean ± SD): 3.3 ± 0.09 h
half-life ([4]; male, Sprague-Dawley, rat, plasma, po, 20 mg/kg, 3 rats, read-out: T1/2, Mean ± SD (converted)): 1.78 ± 0.57 h
Tmax ([4]; male, Sprague-Dawley, rat, plasma, po, 20 mg/kg, 3 rats, read-out: Tmax, Mean ± SD): 1.33 ± 0.29 h
AUC(0-t) ([4]; male, Sprague-Dawley, rat, plasma, po, 20 mg/kg, individual rats, read-out: AUC0→8h): 172 ng·h/mL
Cmax ([4]; male, Sprague-Dawley, rat, plasma, po, 20 mg/kg, individual rats, read-out: Cmax): 60.8 ng/mL
MRT ([4]; male, Sprague-Dawley, rat, plasma, po, 20 mg/kg, individual rats, read-out: MRT): 3.2 h
half-life ([4]; male, Sprague-Dawley, rat, plasma, po, 20 mg/kg, individual rats, read-out: T1/2 (converted)): 2.13 h
Tmax ([4]; male, Sprague-Dawley, rat, plasma, po, 20 mg/kg, individual rats, read-out: Tmax): 1.5 h

N#CC1(c2ccc(NC(=O)c3cccnc3NCc3ccncc3)cc2)CCCC1.O=P(O)(O)O [Phosphate of compound A]
content after 6 Months Under Light [1]: 97.1%
content after 6 Months at 60° C. [1]: 94.2%
content after 6 Months at Room Temperature [1]: 97.3%
Solubility in water (Solubility): Insoluble
AUC0→8 h Mol dose (in vivo): 9074 ± 6292 ng·h/mL

N#CC1(c2ccc(NC(=O)c3cccnc3NCc3ccncc3)cc2)CCCC1.O=C(O)CCC(=O)O [Succinate of compound A]
content after 6 Months Under Light [1]: 94.2%
content after 6 Months at 60° C. [1]: 93.8%
content after 6 Months at Room Temperature [1]: 96.2%

Cl.N#CC1(c2ccc(NC(=O)c3cccnc3NCc3ccncc3)cc2)CCCC1 [Hydrochloride of compound A]
stability (conclusion of stability experiments) [1]: most satisfying
content after 6 Months Under Light [1]: 97.6%
content after 6 Months at 60° C. [1]: 94.7%
content after 6 Months at Room Temperature [1]: 98.2%
Solubility in water (Solubility): very slightly
AUC0→8 h Mol dose (in vivo): 17653 ± 3232 ng·h/mL

Clc1ccc(Nc2nnc(Cc3ccncc3)c3ccccc23)cc1 [PTK787, reference compound]
inhibition on c-Src (c-Src): no inhibition
best T/C % [5]: 40%
Weight after Removing Tumor, d0 [6, 8]: 19.5 g
RTV x ± SD [6, 8]: 9.4 ± 5.9
T/C [6, 8]: 76.4%
TV x ± SD, dn [6, 8]: 1425 ± 613
Weight after Removing Tumor, dn [6, 8]: 17.6 g
TV x ± SD, d0 ([6]; 50 mg/kg p.o.): 171 ± 39
Weight after Removing Tumor, d0 [6, 9]: 19.3 g
RTV x ± SD [6, 9]: 8.8 ± 3.5
T/C [6, 9]: 71.5%
TV x ± SD, dn [6, 9]: 1538 ± 402
Weight after Removing Tumor, dn [6, 9]: 17.3 g
TV x ± SD, d0 ([6]; 100 mg/kg p.o.): 175 ± 43
Weight after Removing Tumor, d0 [6, 10]: 18.8 g
RTV x ± SD [6, 10]: 7.4 ± 2.0
TV x ± SD, dn [6, 10]: 1076 ± 198
Weight after Removing Tumor, dn [6, 10]: 17.1 g
TV x ± SD, d0 ([6]; 200 mg/kg p.o.): 150 ± 25
efficacy at 400 mg/kg ([6]; 400 mg/kg): did not increase significantly
ED50 ([6]; Mus musculus, LS174T, read-out: ED50 on colon cancer Ls174t): 459 mg/kg
tolerance at 400 mg/kg ([6]; mouse, in vivo): could be tolerated by mice
Weight after Removing Tumor, d0 (human colon cancer HT-29; 200 mg/kg p.o. once daily d0-d20, d0 baseline): 15.9 g
RTV x ± SD (human colon cancer HT-29; [11]): 4.9 ± 1.36
TV x ± SD, dn (human colon cancer HT-29; [11]): 1185 ± 143
Weight after Removing Tumor, dn (human colon cancer HT-29; 200 mg/kg p.o. once daily d0-d20, dn 21 days after first administration): 13.9 g
TV x ± SD, d0 (human colon cancer HT-29; 200 mg/kg p.o., d0 baseline): 252 ± 43
tolerance (human colon cancer HT-29; mouse, in vivo, po): well tolerated
